Common to all, as to test: phosphoenolpyruvate titration of purified optical probe (fluorescence ratio)
Holding throughout (type): binding
Holding throughout (details): phosphoenolpyruvate 0 to 10 mM, purified probe treated 10 minutes, ex 420/485 nm, em 528 nm

Assay [1] deals with T1, Thermus thermophilus TtPFK optical probe 254/255-TtPFK-cpYFP variant, TtPFK N59H/I253G/Q254L/R255L/G256F, cpYFP Y1P (Thermus thermophilus, UniProt P21777, form not given/G256F/I253G/N59H/Q254L/R255L).
T1 construct: the numbering corresponds to the full length of the phosphoenolpyruvate-sensitive polypeptide; His-tag; made in house; host or cells: E. coli BL21 (DE3)
T1 sequence (P21777 other isoform, or with tags, fused parts or gaps N59H, form open): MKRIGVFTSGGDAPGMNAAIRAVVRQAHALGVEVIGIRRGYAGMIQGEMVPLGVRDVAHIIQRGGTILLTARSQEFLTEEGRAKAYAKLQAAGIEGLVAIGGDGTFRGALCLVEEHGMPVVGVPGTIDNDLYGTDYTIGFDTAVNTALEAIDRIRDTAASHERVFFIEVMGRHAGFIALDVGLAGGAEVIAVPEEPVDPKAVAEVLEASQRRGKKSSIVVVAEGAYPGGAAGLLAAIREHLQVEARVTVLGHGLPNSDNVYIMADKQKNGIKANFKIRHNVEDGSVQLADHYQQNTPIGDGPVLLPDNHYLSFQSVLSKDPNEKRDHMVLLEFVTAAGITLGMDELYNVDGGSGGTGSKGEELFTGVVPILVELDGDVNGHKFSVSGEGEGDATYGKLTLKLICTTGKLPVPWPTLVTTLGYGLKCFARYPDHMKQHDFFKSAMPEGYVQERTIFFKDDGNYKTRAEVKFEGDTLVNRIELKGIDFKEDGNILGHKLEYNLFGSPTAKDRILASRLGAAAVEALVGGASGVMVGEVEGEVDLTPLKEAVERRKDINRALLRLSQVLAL
The procedure: (§1) • 1. The expression vectors (for example, a phosphoenolpyruvate optical probe expression vector based on pCDF.) were transformed into BL21 (DE3) cells, incubated inverted overnight, and the clones were picked from the plates into 250 mL Erlenmeyer flasks, placed in a shaker at 37 °C and incubated at 220 rpm to OD=0.4-0.8, then 1/1000 (V/V) of IPTG (1 M) was added to induce expression at 18 °C for 24-36 hours. • 2. Upon completion of inducible expression, cells were harvested by centrifugation at 4000 rpm for 30 min, resuspended in 50 mM phosphate buffer and disrupted ultrasonically until the broth were clear, centrifuged at 9600 rpm at 4 °C for 20 min. • 3. The centrifuged supernatant was used to obtain protein by purification through a self-packed nickel column affinity chromatography column, and the protein obtained after nickel column affinity chromatography was further used to obtain protein dissolved in 100 mM HEPES buffer (pH 7.4). • 4. After purified proteins were subjected to SDS-PAGE, probes were diluted to a protein solution having a final concentration of 0.2-5 µM using assay buffer (100 mm HEPES, 100 mM NaCl, pH 7.4). Phosphoenolpyruvate was formulated as a stock solution at a final concentration of 50 mM with the assay buffer (100 mM HEPES, 100 mM NaCl, pH 7.4). • 5. 100 µl 1 µM of protein solution was taken, incubated at 37 °C for 10 min, phosphoenolpyruvate was added for titration, and the fluorescence intensity of 528 nm emission after 420 nm and 485 nm fluorescence excitation of the protein was measured. The fluorescence excitation and emission determination of the samples were done using a multifunctional fluorescence microplate reader. • 6. 100 µl 1 µM of protein solution was taken, incubated at 37 °C for 10 min, and phosphoenolpyruvate was added to determine the absorption and fluorescence spectra of the proteins. Determination of the absorption and fluorescence spectra of the samples was done by spectrophotometer and spectrofluorometer.
(§2) For the 254/255-TtPFK-cpYFP obtained in Example 2 and the 254/255-TtPFK-I253G/Q254L/R255L/G256F-cpYFP-Y1P, 254/255-TtPFK-I253K/Q254L/R255L/G256F-cpYFP-Y1S and 254/256-TtPFK-I253Q/Q254L/G256V/G257L-cpYFP-Y1T/N246F optical probes obtained in Example 6, amino acid were mutated at positions R21, R25, V54, R55, V57, A58, N59, I60, I61, R155, G186, R212, G213, K214, K215, S216 and L320 in the phosphoenolpyruvate binding pocket, and at positions R72, R163, R172 and R246 in the ATP binding pocket to adjust the affinity of the phosphoenolpyruvate optical probe to phosphoenolpyruvate and the substrate specificity. The probes were linearized by reverse PCR, and the sequences of the mutation sites were introduced into the primers. The obtained PCR products were subjected to homologous recombination to obtain plasmids containing the above site mutations. The mutant plasmids were transformed into BL21 (DE3) for induced expression, and the mutant probe proteins were purified for the phosphoenolpyruvate response test. The detection signal of the fusion fluorescent protein containing 2 mM phosphoenolpyruvate was divided by the detection signal of the fusion fluorescent protein without phosphoenolpyruvate. […]

For assay [2], the target named is T2, Thermus thermophilus TtPFK optical probe 254/255-TtPFK-cpYFP variant, TtPFK V54Q/I253G/Q254L/R255L/G256F, cpYFP Y1P (Thermus thermophilus, UniProt P21777, form not given/G256F/I253G/Q254L/R255L/V54Q).
T2 construct: the numbering corresponds to the full length of the phosphoenolpyruvate-sensitive polypeptide; His-tag; made in house; host or cells: E. coli BL21 (DE3)
T2 sequence (P21777 other isoform, or with tags, fused parts or gaps V54Q, form open): as the sequence (P21777 other isoform, or with tags, fused parts or gaps N59H, form open) above, with V54Q, H59N counted along it
As to the method: as §1, §2

Assay [3] deals with T3, Thermus thermophilus TtPFK optical probe 254/256-TtPFK-cpYFP variant, TtPFK G213T/I253Q/Q254L/G256V/G257L, cpYFP Y1T/N246F (Thermus thermophilus, UniProt P21777, form not given/G213T/G256V/G257L/I253Q/Q254L).
T3 construct: the numbering corresponds to the full length of the phosphoenolpyruvate-sensitive polypeptide; His-tag; made in house; host or cells: E. coli BL21 (DE3)
T3 sequence (P21777 other isoform, or with tags, fused parts or gaps G213T, form open): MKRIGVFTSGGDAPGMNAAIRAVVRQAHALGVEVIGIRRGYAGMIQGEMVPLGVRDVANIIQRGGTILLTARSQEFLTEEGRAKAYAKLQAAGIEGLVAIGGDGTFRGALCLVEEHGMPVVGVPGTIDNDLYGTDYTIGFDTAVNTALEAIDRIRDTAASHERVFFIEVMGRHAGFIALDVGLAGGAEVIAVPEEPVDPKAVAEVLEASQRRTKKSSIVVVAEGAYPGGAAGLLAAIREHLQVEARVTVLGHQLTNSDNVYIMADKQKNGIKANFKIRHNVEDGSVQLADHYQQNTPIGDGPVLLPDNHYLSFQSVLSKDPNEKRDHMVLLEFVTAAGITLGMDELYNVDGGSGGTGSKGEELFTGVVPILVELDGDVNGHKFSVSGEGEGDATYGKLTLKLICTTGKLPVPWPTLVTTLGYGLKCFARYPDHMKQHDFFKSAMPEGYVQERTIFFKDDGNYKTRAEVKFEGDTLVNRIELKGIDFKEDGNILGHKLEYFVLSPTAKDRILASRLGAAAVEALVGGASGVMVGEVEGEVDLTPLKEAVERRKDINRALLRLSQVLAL
As to the method: as §1, §2

Assay [4] addresses T4, Thermus thermophilus TtPFK optical probe 254/256-TtPFK-cpYFP variant, TtPFK L320F/I253Q/Q254L/G256V/G257L, cpYFP Y1T/N246F (Thermus thermophilus, UniProt P21777, form not given/G256V/G257L/I253Q/L320F/Q254L).
T4 construct: the numbering corresponds to the full length of the phosphoenolpyruvate-sensitive polypeptide; His-tag; made in house; host or cells: E. coli BL21 (DE3), pCDF vector
As to the method: as §1, §2

The target of assay [5] is T5, Thermus thermophilus TtPFK optical probe 254/256-TtPFK-cpYFP variant, TtPFK N59D/I253Q/Q254L/G256V/G257L, cpYFP Y1T/N246F (Thermus thermophilus, UniProt P21777, form not given/G256V/G257L/I253Q/N59D/Q254L).
T5 construct: His-tag; made in house; host or cells: E. coli BL21 (DE3)
T5 sequence (P21777 other isoform, or with tags, fused parts or gaps N59D, form open): as the sequence (P21777 other isoform, or with tags, fused parts or gaps G213T, form open) above, with N59D, T213G counted along it
As to the method: as §1, §2

The target in assay [6] is T6, Thermus thermophilus TtPFK optical probe 254/256-TtPFK-cpYFP variant, TtPFK S216L/I253Q/Q254L/G256V/G257L, cpYFP Y1T/N246F (Thermus thermophilus, UniProt P21777, form not given/G256V/G257L/I253Q/Q254L/S216L).
T6 construct: the numbering corresponds to the full length of the phosphoenolpyruvate-sensitive polypeptide; His-tag; made in house; host or cells: E. coli BL21 (DE3), pCDF vector
T6 sequence (P21777 other isoform, or with tags, fused parts or gaps S216L, form open): as the sequence (P21777 other isoform, or with tags, fused parts or gaps G213T, form open) above, with T213G, S216L counted along it
As to the method:
as §1, §2

The target in assay [7] is T7, Thermus thermophilus TtPFK optical probe 254/256-TtPFK-cpYFP variant, TtPFK S216Y/I253Q/Q254L/G256V/G257L, cpYFP Y1T/N246F (Thermus thermophilus, UniProt P21777, form not given/G256V/G257L/I253Q/Q254L/S216Y).
T7 construct: His-tag; made in house; host or cells: E. coli BL21 (DE3), pCDF vector
T7 sequence (P21777 other isoform, or with tags, fused parts or gaps S216Y, form open): as the sequence (P21777 other isoform, or with tags, fused parts or gaps G213T, form open) above, with T213G, S216Y counted along it
The procedure:
as §1, §2

The target in assay [8] is T8, Thermus thermophilus TtPFK optical probe 254/256-TtPFK-cpYFP variant, TtPFK V54Q/I253Q/Q254L/G256V/G257L, cpYFP Y1T/N246F (Thermus thermophilus, UniProt P21777, form not given/G256V/G257L/I253Q/Q254L/V54Q).
T8 construct: the numbering corresponds to the full length of the phosphoenolpyruvate-sensitive polypeptide; His-tag; made in house; host or cells: E. coli BL21 (DE3)
T8 sequence (P21777 other isoform, or with tags, fused parts or gaps V54Q, form open): as the sequence (P21777 other isoform, or with tags, fused parts or gaps G213T, form open) above, with V54Q, T213G counted along it
The procedure: as §1, §2

By Kd is commonly meant the free concentration of one partner at which half of the binding sites on the other are occupied at equilibrium, for simple one-to-one binding.

T4 sequence (P21777 other isoform, or with tags, fused parts or gaps, stated change not applied): as the sequence (P21777 other isoform, or with tags, fused parts or gaps G213T, form open) above, with T213G, L565F counted along it

Turning to `C=C(OP(=O)(O)O)C(=O)O` [phosphoenolpyruvate, Phosphoenolpyruvate], the Kd in assay [1] came to 178 µM; in assay [2] it was 769 µM; in assay [3] it was 199 µM; in assay [4], 1770 µM; in assay [5], 374 µM; in assay [6] it was 1.39 µM. Moreover, the Kd in assay [7] was 2.36 µM; in assay [8], 281 µM.

Values taken from patent EP4624497A1, “PHOSPHOEN[…] PROBE, PREPARATION METHOD THEREFOR AND APPLICATION THEREOF” (priority 2022, dated 2024).
